Measurements reported in US7902361B2, “Pyrimidin-4-yl-3, 4-thione compounds and their use in therapy” (Cyclacel Limited, priority 2003, dated 2011).

How the values were obtained:
[1] = target: CDK1/cyclin B (Homo sapiens, UniProt P06493); assay: Kinase assay CDK1/cyclin B (radioactive phosphate incorporation); assay type: biochemical; conditions: Ki calculated (Cheng-Prusoff) from experimentally determined IC50 and Km,ATP; read-out: Kinase Inhibition Ki CDK1 - cyclin B
Method in brief: (§1)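 Radiometric assays measured transfer of radioactive phosphate from ATP onto polypeptide substrates, using 2-4 μg recombinant active enzyme in buffer typically containing 25 mM β-glycerophosphate, 20 mM MOPS, 5 mM EGTA, 1 mM DTT and 1 mM Na3VO3 at pH 7.4. Reactions were stopped on ice, filtered on P81 or GF/C plates and washed with orthophosphoric acid. Incorporated radioactivity was scintillation-counted.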

[2] = system: glycogen synthase; assay: Glycogen synthase activation in rat myotubes; assay type: cell-based; conditions: for EC50: Myotube; for Max FI (% to LiCl): maximum fold induction normalised to 40 mM LiCl
Method: Rat myotubes were differentiated from L6.G8.C5 myoblasts, which were grown in DMEM, 10% FCS and antibiotics until confluent. The medium was then removed, cells washed with PBS and differentiation medium containing minimal essential media eagles (alpha modified) supplemented with 2% FCS and antibiotics. The cells were cultured for 3-4 days until >90% of cells had formed multinucleated myotubes. The differentiated cells were then used for determination of glycogen synthase activation after treatment with GSK3 inhibitor example compounds.
HEK293 cells, mouse adipocytes or rat myotubes were treated in 10-cm Petri dishes with different concentrations of GSK3 inhibitor example compounds for 90 minutes. At the end of the treatment period the cells were washed and scraped in ice cold PBS buffer supplemented with 20 mM NaF. The cells were pelleted by centrifugation and lysed in 300 μL buffer (50 mM.HEPES pH 7.5, 10 mM EDTA, 100 mM NaF, 5 mM DTT, protease inhibitor cocktail (Sigma)). After incubation for 30 min on ice the samples were cleared by centrifugation. The activity of glycogen synthase was determined in the soluble fraction at two different concentrations of […]—low (0.1 mM) and high (10 mM). The reaction was carried out for 30 min (buffer: 50 mM Tris pH 7.8, 20 mM EDTA, 25 mM NaF, 5 mM DTT). The reaction mixture (total volume of 90 μL) contained 1% glycogen, 0.3 mM UDP-glucose and 0.06 μCi ^14C-UDP-glucose. Reaction was stopped by transfer of 70 μL to a GFC 96-well filter plate, containing 140 μL 100% ethanol and the glycogen was allowed to precipitate for 1 h at 4° C. The wells were washed 2 times with 200 μL 66% ethanol and than allowed to dry. Subsequently, 100 μL of scintillation liquid was added, and plates were sealed and counted in a Packard Topcounter. Glycogen synthase activation was calculated as the ratio between the incorporation of labelled ^14C-UDP-glucose in glycogen at low and high concentration of […] (fractional velocity).
The ability of GSK3 inhibitors to activate glycogen synthase was determined in HEK293 cells, mouse adipocytes and rat myotubed. The compounds tested activated glycogen synthase in all three cellular systems with EC50 values in the sub-micromolar to low micromolar concentration range. Most of them exceeded the stimulation induced by 40 mM LiCl (the highest compound concentration used in the assay was 20 μM).

[3] = target: CDK2/cyclin E (Homo sapiens, UniProt P24941); assay: Kinase assay CDK2/cyclin E; assay type: biochemical; conditions: Ki calculated (Cheng-Prusoff) from experimentally determined IC50 and Km,ATP; read-out: Kinase Inhibition Ki CDK2 - cyclin E
Method in brief: as §1

[4] = target: CDK7/cyclin H (Homo sapiens, UniProt P50613); assay: Kinase assay CDK7/cyclin H; assay type: biochemical; conditions: Ki calculated (Cheng-Prusoff) from experimentally determined IC50 and Km,ATP; read-out: Kinase Inhibition Ki CDK7 - cyclin H
CDK7/cyclin H, sequence (P50613 whole entry, species assumed): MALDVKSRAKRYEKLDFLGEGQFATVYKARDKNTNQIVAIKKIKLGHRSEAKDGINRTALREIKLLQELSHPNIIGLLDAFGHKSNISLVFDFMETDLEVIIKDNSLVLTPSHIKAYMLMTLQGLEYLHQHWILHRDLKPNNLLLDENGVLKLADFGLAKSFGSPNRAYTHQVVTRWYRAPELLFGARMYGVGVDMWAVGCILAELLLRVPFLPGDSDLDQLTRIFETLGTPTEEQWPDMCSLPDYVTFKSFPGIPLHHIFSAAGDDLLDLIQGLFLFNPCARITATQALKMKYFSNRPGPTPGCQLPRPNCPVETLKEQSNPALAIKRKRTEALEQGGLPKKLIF
CDK7/cyclin H, sequence (P51946 whole entry partner, species assumed): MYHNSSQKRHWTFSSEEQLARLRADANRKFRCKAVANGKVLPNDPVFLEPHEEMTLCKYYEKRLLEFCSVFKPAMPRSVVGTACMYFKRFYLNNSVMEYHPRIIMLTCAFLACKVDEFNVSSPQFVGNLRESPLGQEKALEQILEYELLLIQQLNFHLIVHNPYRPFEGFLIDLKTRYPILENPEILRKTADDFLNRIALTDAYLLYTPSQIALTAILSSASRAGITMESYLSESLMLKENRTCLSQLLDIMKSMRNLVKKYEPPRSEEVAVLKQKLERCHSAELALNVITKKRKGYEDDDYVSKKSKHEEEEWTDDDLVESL
Method in brief: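 Radiometric filter assays used recombinant kinases or complexes (2-4 μg) with appropriate polypeptide substrates in pH 7.4 β-glycerophosphate/MOPS buffer. Reactions were started with 15 mM MgCl2 and 100 μM ATP containing [γ-32P]-ATP and run at 30° C. Phosphate incorporated into substrate was counted by scintillation after washing.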

[5] = target: T1, aurora A (Homo sapiens, UniProt O14965); assay: Kinase assay aurora A; assay type: biochemical; conditions: Ki calculated (Cheng-Prusoff) from experimentally determined IC50 and Km,ATP; read-out: Kinase Inhibition Ki Aurora A
T1 sequence (O14965 1-403): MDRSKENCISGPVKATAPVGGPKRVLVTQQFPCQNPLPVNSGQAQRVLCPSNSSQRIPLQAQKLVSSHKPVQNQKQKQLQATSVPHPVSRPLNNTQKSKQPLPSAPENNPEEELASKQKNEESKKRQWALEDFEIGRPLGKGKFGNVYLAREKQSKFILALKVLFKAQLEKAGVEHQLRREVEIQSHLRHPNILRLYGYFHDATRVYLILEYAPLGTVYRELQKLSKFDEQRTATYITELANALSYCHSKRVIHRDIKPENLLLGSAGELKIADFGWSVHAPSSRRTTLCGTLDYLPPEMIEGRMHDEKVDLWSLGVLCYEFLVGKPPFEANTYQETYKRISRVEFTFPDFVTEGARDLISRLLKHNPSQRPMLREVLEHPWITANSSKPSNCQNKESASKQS
Method in brief: as §1

CDK1/cyclin B, sequence (P06493 whole entry, species assumed): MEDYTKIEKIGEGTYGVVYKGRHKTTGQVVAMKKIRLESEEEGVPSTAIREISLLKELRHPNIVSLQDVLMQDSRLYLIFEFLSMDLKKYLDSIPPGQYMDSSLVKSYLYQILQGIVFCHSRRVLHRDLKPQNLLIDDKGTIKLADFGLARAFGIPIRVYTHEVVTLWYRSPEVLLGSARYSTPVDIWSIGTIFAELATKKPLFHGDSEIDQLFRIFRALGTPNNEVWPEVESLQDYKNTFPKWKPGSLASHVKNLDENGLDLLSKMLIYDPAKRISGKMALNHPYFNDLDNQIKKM
CDK1/cyclin B, sequence (P14635 whole entry partner, species assumed): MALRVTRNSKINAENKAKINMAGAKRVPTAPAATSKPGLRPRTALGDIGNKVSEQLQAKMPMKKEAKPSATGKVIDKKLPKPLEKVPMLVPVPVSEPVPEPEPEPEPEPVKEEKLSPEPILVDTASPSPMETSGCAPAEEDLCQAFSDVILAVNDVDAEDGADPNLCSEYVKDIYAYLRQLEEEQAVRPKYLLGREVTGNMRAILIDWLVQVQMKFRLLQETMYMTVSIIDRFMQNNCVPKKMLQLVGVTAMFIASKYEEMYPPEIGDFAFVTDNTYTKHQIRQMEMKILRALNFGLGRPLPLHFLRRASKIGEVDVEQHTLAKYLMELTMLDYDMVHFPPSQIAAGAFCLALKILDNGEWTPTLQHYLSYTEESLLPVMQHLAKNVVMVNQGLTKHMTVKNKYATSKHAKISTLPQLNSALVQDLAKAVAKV

| Ki [1] [nM] | EC50 [2] [nM] | Ki [3] [nM] | Ki [4] [nM] | Ki [5] [nM] | SMILES | Max FI (% to LiCl) [2] |
| --- | --- | --- | --- | --- | --- | --- |
| 430 | 1610 ± 199 | 350 | 1100 | 410 | CCNS(=O)(=O)c1cccc(Nc2nccc(-c3sc(=O)n(C)c3C)n2)c1 [Compound 62, 3-[4-(3,4-Dimethyl-2-oxo-2,3-dihydro-thiazol-5-yl)-pyrimidin-2-ylamino]-N-ethyl-benzenesulfonamide] | 130 % to LiCl |
| 870 | 1240 ± 610 | – | 3900 | 170 | CC(=O)Nc1cc(Nc2nccc(-c3sc(=O)n(C)c3C)n2)cc(C(F)(F)F)c1 [Compound 64, N-{3-[4-(3,4-Dimethyl-2-oxo-2,3-dihydro-thiazol-5-yl)-pyrimidin-2-ylamino]-5-trifluoromethyl-phenyl}-acetamide] | 152 % to LiCl |
| – | 10500 ± 990 | – | 360 | 390 | COCCNS(=O)(=O)c1cccc(Nc2nccc(-c3sc(=O)n(C)c3C)n2)c1 [Compound 67, 3-[4-(3,4-Dimethyl-2-oxo-2,3-dihydro-thiazol-5-yl)-pyrimidin-2-ylamino]-N-(2-methoxy-ethyl)-benzenesulfonamide] | 112 % to LiCl |
| 620 | 8490 ± 2480 | 380 | 370 | 250 | Cc1c(-c2ccnc(Nc3cccc(S(=O)(=O)NCCO)c3)n2)sc(=O)n1C [Compound 75, 3-[4-(3,4-Dimethyl-2-oxo-2,3-dihydro-thiazol-5-yl)-pyrimidin-2-ylamino]-N-(2-hydroxy-ethyl)-benzenesulfonamide] | 157 % to LiCl |

| SMILES | Ki [1] [nM] | EC50 [2] [nM] | Ki [3] [nM] | Ki [4] [nM] | Ki [5] [nM] | Max FI (% to LiCl) [2] |
| --- | --- | --- | --- | --- | --- | --- |
| CNc1cc(Nc2nccc(-c3sc(=O)n(C)c3C)n2)cc(C(F)(F)F)c1 [Compound 76, 3,4-Dimethyl-5-[2-(3-methylamino-5-trifluoromethyl-phenylamino)-pyrimidin-4-yl]-3H-thiazol-2-one] | – | – | 89 | 800 | 150 | – |
